# Results reported in patent EP0380359A1, “Biocidal compositions and treatments” (Albright & Wilson Limited, priority 1989, dated 1990).
# Test system: infected cooling water
# Experiment: Biocide test: bacterial counts in dosed samples of infected cooling water after 17 hours
# Type: cell-based
# Conditions: for bacterial counts per ml.: Table 2 (Example 6), control 10⁷
# Description: Ethyl tris (hydroxymethyl) phosphonium chloride (Ethyl THPC) prepared according to the method of example 4, THPS, and a tetrakis (1 - hydroxy ethyl) phosphonium chloride (comparative example) were each dosed at four different concentrations to separate samples of an infected cooling water.
# Bacterial counts per ml. of solution were estimated after 17 hours. The results are set out in Table 1 Table 1
# Methyl tris (hydroxy methyl) phosphonium chloride (methyl THPC), THPS, and two other comparative examples, cyclohexyl tris (hydroxy methyl) phosphonium chloride and octyl tris (hydroxy methyl) phosphonium sulphate were each added at concentrations of 50, 200 and 1,000 ppm to separate samples of an infected cooling water.
# Allyl tris (hydroxymethyl) phosphonium bromide (allyl THPB) prepared as described in Ex3 was compared with 2, 6-dichlorobenzyl tris (hydroxymethyl) phosphonium bromide and THPS in a biocide test as described in example 5. […]
# [1] = Table 3 (Example 7), 100 ppm, test as in example 5
# [2] = Table 3 (Example 7), 150 ppm, test as in example 5
# [3] = Table 3 (Example 7), 200 ppm, test as in example 5
# [4] = Example 5, summary in words of Table 1
# [5] = Table 1 (Example 5), 150 ppm, after 17 hours, control 10⁶
# [6] = Table 1 (Example 5), 200 ppm, after 17 hours, control 10⁶
Compound,"bactericidal activity (Example 7, summary in words of Table 3)",Bacterial counts per ml. of solution [1],Bacterial counts per ml. of solution [2],Bacterial counts per ml. of solution [3],bactericidal activity [4],"Bacterial counts per ml. of solution (Table 1 (Example 5), 100 ppm, after 17 hours, control 10⁶)",Bacterial counts per ml. of solution [5],Bacterial counts per ml. of solution [6],"bacterial counts per ml. (200 ppm, after 17 hours)","bacterial counts per ml. (1000 ppm, after 17 hours)"
"C=CC[P+](CO)(CO)CO.[Br-] [ALLYL THPB, Allyl tris (hydroxymethyl) phosphonium bromide]",performs at least as well as THPS,0 per ml,0 per ml,0 per ml,–,–,–,–,–,–
"CC[P+](CO)(CO)CO.[Cl-] [ETHYL THPC, Ethyl tris (hydroxymethyl) phosphonium chloride]",–,–,–,–,more effective than THPS at lower concentrations,0 per ml,0 per ml,0 per ml,–,–
"C[P+](CO)(CO)CO.[Cl-] [METHYL THPC, Methyl tris (hydroxy methyl) phosphonium chloride]",–,–,–,–,–,–,–,–,0 per ml,0 per ml
"OC[P+](CO)(CO)CO [THPS, reference compound]",–,0 per ml,0 per ml,0 per ml,effective,–,0 per ml,0 per ml,0 per ml,0 per ml
